# Measured values taken from patent publication US20090143391A1, “Aryl and heteroaryl fused imidazo [1,5-a] pyrazines as inhibitors of phosphodiesterase 10” (priority 2007, published 2009).
# Experiments:
# human recombinant PDE10A = biological target: T1, human recombinant PDE10A (Homo sapiens, UniProt Q9Y233); assay: Inhibition of human recombinant PDE10A (Method B), [3H]-cAMP SPA; format: biochemical; details: read-out: PDE10 inhibition IC50 PDE10A human
# T1 construct: made in house; host or cells: SF21 insect cells (baculovirus)
# T1 sequence (Q9Y233 1-779 isoform Q9Y233-1): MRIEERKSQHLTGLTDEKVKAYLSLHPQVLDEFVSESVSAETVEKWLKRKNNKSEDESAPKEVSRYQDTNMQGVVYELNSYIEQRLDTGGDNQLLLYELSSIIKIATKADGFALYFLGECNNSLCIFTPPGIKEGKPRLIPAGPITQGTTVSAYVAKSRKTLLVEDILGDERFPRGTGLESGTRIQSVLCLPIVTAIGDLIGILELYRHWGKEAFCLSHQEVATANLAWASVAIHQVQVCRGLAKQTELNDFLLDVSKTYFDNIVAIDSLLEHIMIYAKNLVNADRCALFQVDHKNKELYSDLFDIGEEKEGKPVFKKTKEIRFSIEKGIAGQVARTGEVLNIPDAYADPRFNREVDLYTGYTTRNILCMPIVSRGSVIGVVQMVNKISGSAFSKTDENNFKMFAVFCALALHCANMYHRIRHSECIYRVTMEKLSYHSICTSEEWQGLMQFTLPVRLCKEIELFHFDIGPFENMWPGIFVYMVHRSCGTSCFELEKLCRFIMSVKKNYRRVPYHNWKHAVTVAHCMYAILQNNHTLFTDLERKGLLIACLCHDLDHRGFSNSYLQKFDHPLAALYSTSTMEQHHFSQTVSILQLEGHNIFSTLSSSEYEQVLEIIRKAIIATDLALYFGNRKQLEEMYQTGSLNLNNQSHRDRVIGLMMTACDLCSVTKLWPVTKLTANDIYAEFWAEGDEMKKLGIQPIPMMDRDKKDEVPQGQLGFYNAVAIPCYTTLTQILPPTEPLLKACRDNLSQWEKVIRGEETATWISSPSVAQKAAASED
# Description: The gene was than inserted into a baculovirus vector, ligated with the baculovirus DNA. The enzyme-protein was expressed in SF21-cells. The enzyme was isolated from these cells by harvesting the cells by a centrifugation at 200 g to collect the cells. The cells were resuspended in 50 mM Tris-HCl/5 mM MgCl2 buffer (pH=7.4) and lysed by a sonication of the cells. The cytosolic PDE10A was obtained by a centrifugation at 48000 g for 1 h in the supernatant and stored at −70 ° C. PDE10 activity was determined in a one step procedure in microtiterplates. […] Nonspecific activity was tested without the enzyme. The reaction was initiated by addition of the substrate solution and was carried out at 37° C. for 30 minutes. Enzymatic activity was stopped by addition of 25 μl YSi-SPA-beads (Amersham-Pharmacia). One hour later the mixture was measured in a liquid scintillation counter for microtiterplates (Microbeta Trilux). To pipette the incubation mixture a robot Biomek (Fa. Beckman) is used. […] For determination of IC50 values the Hill-plot, 2-parameter-model, was used.
# PDE10 from pig striatum = PDE10 from pig striatum (Sus scrofa, UniProt A0A287B941); assay: Inhibition of PDE10 from pig striatum (Method A / Method B), [3H]-cAMP SPA; format: biochemical
# Description: Striatum from male Wistar rats (180-200 g), male hybrid pigs (150 kg) and male guinea pigs (CRL (HA), 500 g) respectively were collected and frozen at −70° C. […] The supernatant is called the cytosolic fraction and was removed and stored on ice. The pellet was resuspended in the same buffer, but containing 1% Triton and incubated for 45 min at 4° C. Both fractions were independently applied onto a 5 ml Hi Trap™ QHP column at the Äkta-FPLC. After washing the columns the bound PDE protein was eluted with an increasing sodium chloride gradient (0 mM-500 mM sodium chloride) in 50 mM Tris/Mg-buffer at 4° C. for the cytosolic fraction and in the presence of 1% Triton for the membrane fraction. […] The fractions with PDE10-activity were pooled and frozen in aliquots until use at −20° C. PDE10 activity was determined in a one step procedure in microtiter plates. The reaction mixture of 100 μl contained 50 mM Tris-HCl/5 mM MgCl2 buffer (pH=7.4) (Sigma, Deisenhofen, Germany; Merck, Darmstadt, Germany) 0.1 μM [^3H]-cAMP (Amersham, Buckinghamshire, UK) and the enzyme. Nonspecific activity was tested without the enzyme. The reaction was initiated by addition of the substrate solution and was carried out at 37 ° C. for 30 minutes. Enzymatic activity was stopped by addition of 25 μl YSi-SPA-beads (Amersham-Pharmacia). One hour later the mixture was measured in a liquid scintillation counter for microtiter plates (Microbeta Trilux). To pipette the incubation mixture a robot Biomek (Fa. Beckman) is used. […] The optimal amount of enzyme in the assay has been determined and optimised for each enzyme preparation and substrate separately before using the enzyme in compound testing. For determination of IC50 values the Hill-plot, 2-parameter-model, was used. […] Striatum from male hybrid pigs (150 kg) were collected and frozen at −70° C. […] The supernatant was removed and the pellet was resuspended in the same buffer, but containing 1% Triton and incubated for 45 min at 4° C. The membrane fraction was applied onto a 5 ml Hi Trap™ QHP column at the Äkta-FPLC. After washing the column the bound PDE protein was eluted with an increasing sodium chloride gradient (0 mM-500 mM sodium chloride) in 50 mM Tris/Mg-buffer at 4° C. in the presence of 1% Triton. […] The fractions with PDE10-activity were pooled and frozen in aliquots until use at −20° C. PDE10 activity was determined in a one step procedure in microtiterplates. The reaction mixture of 100 μl contained 50 mM Tris-HCl/5 mM MgCl2 buffer (pH=7.4) (Sigma, Deisenhofen, Germany; Merck, Darmstadt, Germany) 0.1 μM [3H]-cAMP (Amersham, Buckinghamshire, UK) and the enzyme. Nonspecific activity was tested without the enzyme. The reaction was initiated by addition of the substrate solution and was carried out at 37° C. for 30 minutes. Enzymatic activity was stopped by addition of 25 μl YSi-SPA-beads (Amersham-Pharmacia). One hour later the mixture was measured in a liquid scintillation counter for microtiterplates (Microbeta Trilux). To pipette the incubation mixture a robot Biomek (Fa. Beckman) is used. […] The optimal amount of enzyme in the assay has been determined and optimised for each enzyme preparation before using the enzyme in compound testing. For determination of IC50 values the Hill-plot, 2-parameter-model, was used.
# [1] = test system: haloperidol-induced catalepsy; details: rats; cited from earlier work
# [2] = test system: apomorphine-induced stereotypies; details: rats; cited from earlier work
# [3] = test system: dopamine concentration in rat brain; details: cited from earlier work
Structure (SMILES),IC50 (human recombinant PDE10A) [nM],melting point [°C],IC50 (PDE10 from pig striatum) [nM],effect on haloperidol-induced catalepsy [1],effect on apomorphine-induced stereotypies [2],effect on dopamine concentration in rat brain [3]
CCCc1nc(C)c2c(Cl)nc3ccc(OCC4CC4)cc3n12 [Example B12],10 to 100,103 to 105,–,–,–,–
"Cc1nc(C2CCCCC2)n2c1c(NS(C)(=O)=O)nc1ccc(OCc3ccc4ccccc4n3)cc12 [Example 13, N-[1-Cyclohexyl-3-methyl-8-(quinolin-2-ylmethoxy)-imidazo[1,5-a]quinoxalin-4-yl]-methanesulfonamide]",≤ 10,255 to 258,≤ 10,–,–,–
"CCc1nc(C)c2c(Cl)nc3ccc(N4CCCCC4)cc3n12 [Example B2, 4-Chloro-1-ethyl-3-methyl-8-piperidin-1-yl-imidazo(1,5-a)quinoxaline]",–,160 to 163,10 to 100,–,–,–
"Cc1nc(C2CCCCC2)n2c1c(NS(C)(=O)=O)nc1ccc(F)cc12 [Example 6, N-(1-Cyclohexyl-8-fluoro-3-methyl-imidazo(1,5-a)quinoxalin-4-yl)-methanesulfonamide]",–,291 to 293,10 to 100,–,–,–
"CCCc1nc(C)c2c(NS(C)(=O)=O)nc3cc(OC)ccc3n12 [Example 15, N-(7-Methoxy-3-methyl-1-propyl-imidazo[1,5-a]quinoxalin-4-yl)-methanesulfonamide]",10 to 100,222 to 226,10 to 100,–,–,–
"CCc1nc(C)c2c(NS(C)(=O)=O)nc3ccc(N4CCCCC4)cc3n12 [Example 7, N-[1-Ethyl-3-methyl-8-(piperidin-1-yl)-imidazo(1,5-a)quinoxalin-4-yl]-methanesulfonamide]",–,223 to 227,10 to 100,–,–,–
"CCCc1nc(C)c2c(Cl)nc3ccc(F)cc3n12 [Example B6, 4-Chloro-8-fluoro-3-methyl-1-propyl-imidazo(1,5-a)quinoxaline]",–,133 to 135,10 to 100,–,–,–
COc1ccc(Cc2nccc3cc(OC)c(OC)cc23)cc1OC [Papaverine],–,–,–,increases haloperidol-induced catalepsy,reduces apomorphine-induced stereotypies,reducing dopamine concentration
Cc1nc(C2CCCCC2)n2c1c(Cl)nc1ccc(F)cc12 [Example B7],–,205 to 210,10 to 100,–,–,–
CCc1nc(C)c2c(Cl)nc3ccccc3n12 [Example B3],–,125 to 128,10 to 100,–,–,–
"COc1ccc2c(c1)nc(NS(C)(=O)=O)c1c(C)nc(-c3ccccc3Cl)n12 [Example 14, N-[1-(2-Chloro-phenyl)-7-methoxy-3-methyl-imidazo[1,5-a]quinoxalin-4-yl]-methanesulfonamide]",10 to 100,277 to 278,10 to 100,–,–,–
"CCCc1nc(C)c2c(NS(C)(=O)=O)nc3ccc(F)cc3n12 [Example 4, N-(8-Fluoro-3-methyl-1-propyl-imidazo(1,5-a)quinoxalin-4-yl)-methanesulfonamide]",–,277 to 280,10 to 100,–,–,–
"CCCc1nc(C)c2c(NS(C)(=O)=O)nc3ccc(OCC4CC4)cc3n12 [Example 11, N-(8-Cyclopropylmethoxy-3-methyl-1-propyl-imidazo[1,5-a]quinoxalin-4-yl)-methanesulfonamide]",≤ 10,240 to 241,–,–,–,–
CCCc1nc(C)c2c(Cl)nc3cc(OC)ccc3n12 [Example B15],10 to 100,154 to 159,–,–,–,–
Cc1nc(C2CCCCC2)n2c1c(Cl)nc1ccc(OCC3CC3)cc12 [Example B13],≥ 100,165 to 168,–,–,–,–
"CCCc1nc(C)c2c(NS(C)(=O)=O)nc3ccc(OC)cc3n12 [Example 9, N-(8-Methoxy-3-methyl-1-propyl-imidazo[1,5-a]quinoxalin-4-yl)-methanesulfonamide]",10 to 100,234 to 237,–,–,–,–
"COc1ccc2nc(C#N)c3c(C)nc(C4CCCCC4)n3c2c1 [Example 8, 1-Cyclohexyl-8-methoxy-3-methyl-imidazo[1,5-a]quinoxaline-4-carbonitrile]",≥ 100,244 to 248,10 to 100,–,–,–
"CCc1nc(C)c2c(NS(C)(=O)=O)nc3ccc(F)cc3n12 [Example 3, N-(1-Ethyl-8-fluoro-3-methyl-imidazo(1,5-a)quinoxalin-4-yl)-methanesulfonamide]",–,268 to 269,≥ 100,–,–,–
Cc1nc(C2CCCCC2)n2c1c(Cl)nc1ccc(Cl)cc12 [Example B9],–,244 to 248,≥ 100,–,–,–
"Cc1nc(C2CCCCC2)n2c1c(NS(C)(=O)=O)nc1ccc(OCC3CC3)cc12 [Example 12, N-(1-Cyclohexyl-8-cyclopropylmethoxy-3-methyl-imidazo[1,5-a]quinoxalin-4-yl)-methanesulfonamide]",10 to 100,259 to 261,≤ 10,–,–,–
"CCc1nc(C)c2c(NS(C)(=O)=O)nc3ccccc3n12 [Example 2, N-(1-Ethyl-3-methyl-imidazo(1,5-a)quinoxalin-4-yl)-methanesulfonamide]",–,–,≥ 100,–,–,–
"COc1ccc2nc(NS(C)(=O)=O)c3c(C)nc(C4CCCCC4)n3c2c1 [Example 10, N-(1-Cyclohexyl-8-methoxy-3-methyl-imidazo[1,5-a]quinoxalin-4-yl)-methanesulfonamide]",10 to 100,287 to 288,–,–,–,–
"Cc1nc(-c2ccccc2Cl)n2c1c(NS(C)(=O)=O)nc1ccc(F)cc12 [Example 5, N-(1-(2-Chlorphenyl)-8-fluoro-3-methyl-imidazo(1,5-a)quinoxalin-4-yl)-methanesulfonamide]",–,–,10 to 100,–,–,–
COc1ccc2nc(Cl)c3c(C)nc(C4CCCCC4)n3c2c1 [Example B11],10 to 100,212 to 215,–,–,–,–
"CCCc1nc(C)c2c(C#N)nc3ccc(F)cc3n12 [Example 1, 8-Fluoro-3-methyl-1-propyl-imidazo(1,5-a)quinoxaline-4-carbonitrile]",–,–,10 to 100,–,–,–
